Earlier results as cited in publication PMC4959786 (Clinical immunology (Orlando, Fla.), 2015).

Biological target: I-A^q (Mus musculus, UniProt P04227+P06342)
Conditions: result in words, earlier work

Sequence of I-A^q (P04227 whole entry, looked up): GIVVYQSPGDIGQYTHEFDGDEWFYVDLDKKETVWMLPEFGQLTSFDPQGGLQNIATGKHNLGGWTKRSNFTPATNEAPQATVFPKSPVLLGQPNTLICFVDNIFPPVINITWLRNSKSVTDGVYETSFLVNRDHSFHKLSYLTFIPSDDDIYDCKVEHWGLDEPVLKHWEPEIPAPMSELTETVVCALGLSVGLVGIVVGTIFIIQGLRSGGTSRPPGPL
Sequence of I-A^q (P06342 whole entry, looked up): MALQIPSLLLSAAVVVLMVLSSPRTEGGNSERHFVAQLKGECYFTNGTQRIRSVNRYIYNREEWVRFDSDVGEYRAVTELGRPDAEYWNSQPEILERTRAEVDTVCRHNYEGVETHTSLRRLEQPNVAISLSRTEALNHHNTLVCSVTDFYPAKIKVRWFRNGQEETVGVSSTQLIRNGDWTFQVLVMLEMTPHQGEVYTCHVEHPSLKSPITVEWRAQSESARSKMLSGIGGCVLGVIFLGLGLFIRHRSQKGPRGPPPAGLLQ

GEBGABGNKGEQGPKGEBGP [A9]
binding to I-A^q (ref [5], [6]): binds very weakly | binding affinity for I-A^q (ref [6]): very weak binding affinity
